Data: patent US20260256134A1, “NanoEmulsion Composite Mixture of Essential Oils with Biodegradable Polymers and Co-Surfactants for Antimicrobial Activities and Enhanced Thermal Stability and Antioxidant Activities” (The American University in Cairo, priority 2022, published 2026)

Assays:
[1] = orally administered to rats; cited from earlier work
[2] = test system: Geotricum candiaum; assay: Inhibition zone method, antimicrobial activity; type: cell-based, Geotricum candidum
Text: (§1) Inhibition zone method was followed in order to test the antimicrobial efficiency of the selected nanoemulsion composite mixture samples against 6 chosen strains of gram-positive bacterial strains, 6 strains of gram-negative bacterial strains 6 strains of fungi as shown in the following list;
(§2) The following formulae were defined: • Formula 1 (F1): Green tea essential oil • Formula 2 (F2): Chitosan solution • Formula 3 (F3): benzalkonium solution • Formula 4 (F4): control (antimicrobial compound) • Formula 5 (F5): Green tea essential oil+Chitosan solution • Formula 6 (F6): The final formula of the nanoemulsion composite mixture
(§3) Inhibition zone method was followed in order to test the antimicrobial efficiency of the 6 selected nanoemulsion composite mixture samples against 6 chosen strains of gram-positive bacterial strains, 6 strains of gram-negative bacterial strains 6 strains of fungi.

[3] = test system: Klebsella pneumonia; assay: Inhibition zone method, antimicrobial activity; type: cell-based
Text: as §1, §2, §3

[4] = test system: Bacillus subtilis; assay: Inhibition zone method, antimicrobial activity; type: cell-based
Text: as §1, §2, §3

[5] = test system: Streptococcus mutants; assay: Inhibition zone method, antimicrobial activity; type: cell-based
Text: as §1, §2, §3

[6] = test system: Salmonella Typhium; assay: Inhibition zone method, antimicrobial activity; type: cell-based
Text: as §1, §2, §3

[7] = test system: Pseudomonas aeruginosa; assay: Inhibition zone method, antimicrobial activity; type: cell-based
Text: as §1, §2, §3

[8] = test system: Micrococcus spp.; assay: Inhibition zone method, antimicrobial activity; type: cell-based
Text: as §1, §2, §3

[9] = test system: Aspergillus niger; assay: Inhibition zone method, antimicrobial activity; type: cell-based
Text: as §1, §2, §3

[10] = test system: Aspergillus fumigatus; assay: Inhibition zone method, antimicrobial activity; type: cell-based
Text: as §1, §2, §3

[11] = test system: Enterobacter colacae; assay: Inhibition zone method, antimicrobial activity; type: cell-based
Text: as §1, §2, §3

[12] = test system: Enterococcus faecalis; assay: Inhibition zone method, antimicrobial activity; type: cell-based
Text: as §1, §2, §3

[13] = test system: Penicillium italicum; assay: Inhibition zone method, antimicrobial activity; type: cell-based
Text: as §1, §2, §3

[14] = test system: Staphylococcus aureus; assay: Inhibition zone method, antimicrobial activity; type: cell-based
Text: as §1, §2, §3

[15] = test system: Fusarium moniliform; assay: Inhibition zone method, antimicrobial activity; type: cell-based
Text: as §1, §2, §3

[16] = test system: Eisherecia coli; assay: Inhibition zone method, antimicrobial activity; type: cell-based
Text: as §1, §2, §3

[17] = test system: Candida albicans; assay: Inhibition zone method, antimicrobial activity; type: cell-based
Text: as §1, §2, §3

[18] = test system: Proteus vulgaris; assay: Inhibition zone method, antimicrobial activity; type: cell-based
Text: as §1, §2, §3

[19] = test system: MRSA; assay: Inhibition zone method, antimicrobial activity; type: cell-based, Methicillin-resistant Staphylococcus aureus (MRSA)
Text: as §1, §2, §3

Substance	Lethal dose 50 (LD50) [1] [mg/kg]	Antimicrobial activity expressed as % inhibition [2] [%]	Antimicrobial activity expressed as % inhibition [3] [%]	Antimicrobial activity expressed as % inhibition [4] [%]	Antimicrobial activity expressed as % inhibition [5] [%]	Antimicrobial activity expressed as % inhibition [6] [%]	Antimicrobial activity expressed as % inhibition [7] [%]	Antimicrobial activity expressed as % inhibition [8] [%]	Antimicrobial activity expressed as % inhibition [9] [%]	Antimicrobial activity expressed as % inhibition [10] [%]	Antimicrobial activity expressed as % inhibition [11] [%]	Antimicrobial activity expressed as % inhibition [12] [%]	Antimicrobial activity expressed as % inhibition [13] [%]	Antimicrobial activity expressed as % inhibition [14] [%]	Antimicrobial activity expressed as % inhibition [15] [%]	Antimicrobial activity expressed as % inhibition [16] [%]	Antimicrobial activity expressed as % inhibition [17] [%]	Antimicrobial activity expressed as % inhibition [18] [%]	Antimicrobial activity expressed as % inhibition [19] [%]
Benzalkonium chloride [BAC]	234 to 525	–	–	–	–	–	–	–	–	–	–	–	–	–	–	–	–	–	–
benzalkonium [Formula F3]	–	89	80	72	45	41	66	64	70	52	94	60	96	50	90	63	50	95	90
